Article PMC11134387, “Cancer-Stem-Cell Phenotype-Guided Discovery of a Microbiota-Inspired Synthetic Compound Targeting NPM1 for Leukemia” (JACS Au, 2024)

Test system: FBXW7
Assay: Western blot of FBXW7 in OCI-AML3 cells
Type: cell-based
Experimental: We next studied the impact of UCM-13369 in the genes and/or expression levels of NPM1 and NPM1 C+ pathway components (Figure 4A), including the positive regulation of c-Myc[34] and the negative regulation of FBXW7 and the pro-apoptotic CASP8.[35] […] The inhibition of NPM1 was also observed in MOLM13 cells expressing WT NPM1 (Figure S1B).
Assay (Bio-Rad Labo rato ries, Hercules, CA, USA) and 20 µg of total protein s was loaded onto 10% SDS-PAGE gels followed by transfer onto a nitrocellulose membrane. Blots were incubated with primary antibodies α-NPM1 (Abcam ), α-M YC (Cel l Signaling), α-FBXW7 ( Abcam) and an ti-mouse or anti-rabbit secondary antibodies (BD). An antibody to β-actin was used to check for equivalent protei n loading. Membranes were developed by enhanced chemiluminescenc e (Clarity Weste rn ECL substrate; Bio-Rad Laboratories ). […]
Proteomic analysis. A supplementary table (Excel file) includes all the data of the proteomic analysis, showing all the proteins identified, not only those ablated in the treated population, but also those found with different expression levels in both populations under study, and even those that were not detected in the control population but were detected in the treated population. Follows the image of a Venn diagram showing the number of proteins detected in each of the pop ulations and the proteins that converg e […]

SMILES: COc1ccc(C2Cc3[nH]c4ccccc4c3C(CCNCC3CC3)C2N)cc1 (stereo not shown) [4b, 4-{2-[(Cyclopropylmethyl)amino]ethyl}-2-(4-methoxyphenyl)-2,3,4,9-tetrahydro-1H-carbazol-3-amine]
- FBXW7 levels (in words): upregulated
